Values quoted from earlier work in publication PMC7465636 (Biomolecules, 2020).

Columns and labels:
[1] = test system: P. falciparum Dd2; settings: cited from earlier work
[2] = test system: P. falciparum D10; settings: cited from earlier work
[3] = test system: knockout of P. falciparum PfSR25; design: method as in PMID 28842684; settings: knockout versus wild type; cited from earlier work
[4] = test system: P. falciparum W2; settings: cited from earlier work

Structure (SMILES)	IC50 [1] [µM]	IC50 [2] [µM]	susceptibility of PfSR25 knockout parasite to the drug [3]	IC50 [4] [µM]
O=C(Cn1cc(CNc2ccnc3cc(Cl)ccc23)nn1)N1CCCCC1 [IV]	0.0434	0.0136		
CN(C)C(Cn1cc(-c2ccccc2)nn1)NCc1ccccc1Cl (stereo not drawn) [II]	13	11.3		
Clc1ccc2c(N3CCN(CCCN4CCN(c5ccnc6cc(Cl)ccc56)CC4)CC3)ccnc2c1 [piperaquine]			more susceptible	
COc1cc([N+](=O)[O-])ccc1-n1cc(COC2=C(CC=C(C)C)C(=O)C=C(C)C2=O)nn1 [V]				4.1
